Source: ChEMBL document CHEMBL4673406, “Discovery and Preclinical Evaluation of BMS-986242, a Potent, Selective Inhibitor of Indoleamine-2,3-dioxygenase 1” (ACS Med Chem Lett, 2021)

What was measured:
[1] = biological target: UDP-glucuronosyltransferases (UGTs) (Homo sapiens, UniProt O60656+O75310+O75795+P06133+P0DTE4+P0DTE5+P16662+P19224+P22309+P22310+P35503+P35504+P36537+P54855+Q6UWM9+Q9BY64+Q9HAW7+Q9HAW8+Q9HAW9); experiment: Metabolic stability in human hepatocytes assessed as UGT-mediated compound glucuronidation by measuring half life; assay type: ADME, cell-based, Hepatocyte
[2] = Oral bioavailability in dog at 5 mg/kg; assay type: ADME, organism-based, Canis lupus familiaris; conditions: in vivo
[3] = Metabolic stability in rat hepatocytes assessed as CYP450-mediated compound metabolism by measuring half life; assay type: ADME, cell-based, Hepatocyte
[4] = biological target: Indoleamine 2,3-dioxygenase 1 (Mus musculus) (UniProt P28776); experiment: In vivo inhibition of IDO1 in nu/nu mouse xenografted with human SK-OV-3 cells assessed as reduction in kynurenine level at 10 mg/kg, po qd by HPLC-MS/MS analysis relative to control; assay type: functional, organism-based
Chain of Indoleamine 2,3-dioxygenase 1 (Mus musculus) (P28776 whole entry, looked up): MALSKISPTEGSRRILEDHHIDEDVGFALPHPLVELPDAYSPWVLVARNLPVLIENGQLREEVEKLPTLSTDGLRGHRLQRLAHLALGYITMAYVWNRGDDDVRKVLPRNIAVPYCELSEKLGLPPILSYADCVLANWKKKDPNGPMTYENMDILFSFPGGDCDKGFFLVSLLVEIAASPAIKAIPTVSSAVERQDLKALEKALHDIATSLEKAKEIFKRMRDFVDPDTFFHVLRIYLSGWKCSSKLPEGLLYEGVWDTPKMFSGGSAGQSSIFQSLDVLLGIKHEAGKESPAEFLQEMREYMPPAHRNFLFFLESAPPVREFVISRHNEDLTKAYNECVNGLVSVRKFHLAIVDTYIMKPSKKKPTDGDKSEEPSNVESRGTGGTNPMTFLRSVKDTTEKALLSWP

[5] = AUC (0 to 24 hrs) in nu/nu mouse xenografted with human SK-OV-3 cells measured in tumor at 3 mg/kg, po qd by uHPLC-MS/MS analysis; assay type: ADME, organism-based; set-up: time < 24 hr, route oral, dose 3 mg/kg
[6] = AUC (0 to 24 hrs) in nu/nu mouse xenografted with human SK-OV-3 cells measured in tumor at 10 mg/kg, po qd by uHPLC-MS/MS analysis; assay type: ADME, organism-based; set-up: time < 24 hr, route oral, dose 10 mg/kg
Cytochrome P450 2C8 = biological target: T1, Cytochrome P450 2C8 (Homo sapiens, UniProt P10632); experiment: Inhibition of human CYP2C8; assay type: ADME
T1 sequence (P10632 whole entry): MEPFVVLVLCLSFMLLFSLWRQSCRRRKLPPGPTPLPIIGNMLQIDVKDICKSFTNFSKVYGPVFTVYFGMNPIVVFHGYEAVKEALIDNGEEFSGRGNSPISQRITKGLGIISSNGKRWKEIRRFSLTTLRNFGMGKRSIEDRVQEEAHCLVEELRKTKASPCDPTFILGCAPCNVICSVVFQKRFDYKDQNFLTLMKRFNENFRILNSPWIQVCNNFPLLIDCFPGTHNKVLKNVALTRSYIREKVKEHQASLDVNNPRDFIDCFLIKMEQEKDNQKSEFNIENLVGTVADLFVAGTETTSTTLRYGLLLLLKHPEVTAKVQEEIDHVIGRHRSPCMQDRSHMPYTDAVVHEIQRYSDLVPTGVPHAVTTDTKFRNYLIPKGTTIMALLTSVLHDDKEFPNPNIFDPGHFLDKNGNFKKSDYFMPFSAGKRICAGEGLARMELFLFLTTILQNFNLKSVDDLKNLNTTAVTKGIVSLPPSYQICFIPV

[7] = Half life in rat at 0.5 mg/kg, iv; assay type: ADME, organism-based; conditions: in vivo
[8] = Metabolic stability in mouse hepatocytes assessed as CYP450-mediated compound metabolism by measuring half life; assay type: ADME, cell-based, Hepatocyte
alpha7 nAChR = alpha7 nAChR (Homo sapiens, UniProt P36544); experiment: Inhibition of alpha7 nAChR (unknown origin) relative to control; conditions: read-out: Imax
Chain of alpha7 nAChR (P36544 whole entry): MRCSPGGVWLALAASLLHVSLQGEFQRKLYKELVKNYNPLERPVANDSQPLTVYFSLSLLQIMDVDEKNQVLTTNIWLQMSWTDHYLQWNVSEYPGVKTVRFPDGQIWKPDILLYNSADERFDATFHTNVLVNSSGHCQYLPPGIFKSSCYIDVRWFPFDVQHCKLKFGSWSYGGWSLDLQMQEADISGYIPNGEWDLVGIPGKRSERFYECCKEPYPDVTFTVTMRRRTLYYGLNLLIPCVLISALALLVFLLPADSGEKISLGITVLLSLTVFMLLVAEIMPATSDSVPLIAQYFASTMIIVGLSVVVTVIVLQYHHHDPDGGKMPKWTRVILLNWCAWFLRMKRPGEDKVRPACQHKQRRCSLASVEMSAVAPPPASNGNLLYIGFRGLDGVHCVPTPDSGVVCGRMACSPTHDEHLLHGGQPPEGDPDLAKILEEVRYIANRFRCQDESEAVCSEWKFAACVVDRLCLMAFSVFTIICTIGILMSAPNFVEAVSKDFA

Cytochrome P450 2C19 = Cytochrome P450 2C19 (Homo sapiens, UniProt P33261); experiment: Inhibition of human CYP2C19; assay type: ADME
Chain of Cytochrome P450 2C19 (P33261 whole entry): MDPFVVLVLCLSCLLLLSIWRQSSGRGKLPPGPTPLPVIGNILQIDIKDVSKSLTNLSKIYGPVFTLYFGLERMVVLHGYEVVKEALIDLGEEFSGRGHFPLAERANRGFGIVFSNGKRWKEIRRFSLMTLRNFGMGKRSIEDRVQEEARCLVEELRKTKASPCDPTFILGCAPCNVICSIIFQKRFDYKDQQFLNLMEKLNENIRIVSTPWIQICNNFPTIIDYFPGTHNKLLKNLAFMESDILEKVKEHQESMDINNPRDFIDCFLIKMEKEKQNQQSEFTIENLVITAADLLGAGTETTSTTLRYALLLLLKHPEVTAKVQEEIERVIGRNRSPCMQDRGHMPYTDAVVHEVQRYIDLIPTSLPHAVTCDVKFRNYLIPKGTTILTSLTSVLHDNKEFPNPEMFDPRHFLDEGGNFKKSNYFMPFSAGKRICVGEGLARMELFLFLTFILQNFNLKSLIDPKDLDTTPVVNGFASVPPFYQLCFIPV

[9] = biological target: Indoleamine 2,3-dioxygenase 1 (Mus musculus, UniProt P28776); experiment: Inhibition of IDO1 in IFNgamma-stimulated mouse M109 cells preincubated for 2 hrs followed by IFNgamma stimulation and measured after 18 hrs by; assay type: cell-based
Chain of Indoleamine 2,3-dioxygenase 1 (Mus musculus, UniProt P28776) (P28776 whole entry): as the sequence (P28776 whole entry, looked up) above

Cytochrome P450 2C9 = Cytochrome P450 2C9 (Homo sapiens, UniProt P11712); experiment: Inhibition of human CYP2C9; assay type: ADME
Chain of Cytochrome P450 2C9 (P11712 whole entry): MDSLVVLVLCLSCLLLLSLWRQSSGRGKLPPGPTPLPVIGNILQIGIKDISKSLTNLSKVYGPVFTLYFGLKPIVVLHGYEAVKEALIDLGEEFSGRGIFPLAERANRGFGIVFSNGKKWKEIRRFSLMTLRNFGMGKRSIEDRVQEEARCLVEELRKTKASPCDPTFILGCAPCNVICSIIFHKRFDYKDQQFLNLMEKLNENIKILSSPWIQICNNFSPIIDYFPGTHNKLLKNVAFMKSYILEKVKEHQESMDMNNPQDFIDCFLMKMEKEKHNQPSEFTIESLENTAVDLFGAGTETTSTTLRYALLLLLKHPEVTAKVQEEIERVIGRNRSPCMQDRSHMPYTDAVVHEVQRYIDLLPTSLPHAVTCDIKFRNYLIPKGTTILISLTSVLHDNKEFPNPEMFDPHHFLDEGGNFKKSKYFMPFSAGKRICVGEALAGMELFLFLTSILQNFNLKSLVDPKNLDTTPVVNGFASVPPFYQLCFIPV

[10] = Metabolic stability in mouse hepatocytes assessed as UGT-mediated compound glucuronidation by measuring half life; assay type: ADME, cell-based, Hepatocyte
in vitro = conditions: human, liver microsomes
Description: Metabolic stability in human liver microsomes assessed as parent compound remaining at 0.5 uM measured after 10 mins

CYP450 = CYP450 (Homo sapiens, UniProt P04798+P05177+P05181+P08684+P10632+P10635+P11509+P11712+P13584+P20813+P20815+P20853+P24462+P24903+P33260+P33261+P51589+P78329+P98187+Q02928+Q08477+Q16678+Q16696+Q5TCH4+Q6VVX0+Q7Z449+Q8TAV3+Q96SQ9+Q9HB55); experiment: Inhibition of human CYP450; assay type: ADME, protein assay
[11] = AUC in rat at 0.5 mg/kg, iv; assay type: ADME, organism-based; set-up: dose 0.5 mg/kg; conditions: in vivo
[12] = Metabolic stability in dog hepatocytes assessed as CYP450-mediated compound metabolism by measuring half life; assay type: ADME, cell-based, Canis lupus familiaris, Hepatocyte
[13] = biological target: T2, Indoleamine 2,3-dioxygenase 1 (Homo sapiens, UniProt P14902); experiment: Inhibition of IDO1 in IFNgamma/LPS-stimulated human whole blood preincubated for 4 hrs followed by IFNgamma/LPS stimulation and incubated for 18 hrs by Rapid-fire mass spectrometry analysis; assay type: tissue-based
T2 sequence (P14902 whole entry): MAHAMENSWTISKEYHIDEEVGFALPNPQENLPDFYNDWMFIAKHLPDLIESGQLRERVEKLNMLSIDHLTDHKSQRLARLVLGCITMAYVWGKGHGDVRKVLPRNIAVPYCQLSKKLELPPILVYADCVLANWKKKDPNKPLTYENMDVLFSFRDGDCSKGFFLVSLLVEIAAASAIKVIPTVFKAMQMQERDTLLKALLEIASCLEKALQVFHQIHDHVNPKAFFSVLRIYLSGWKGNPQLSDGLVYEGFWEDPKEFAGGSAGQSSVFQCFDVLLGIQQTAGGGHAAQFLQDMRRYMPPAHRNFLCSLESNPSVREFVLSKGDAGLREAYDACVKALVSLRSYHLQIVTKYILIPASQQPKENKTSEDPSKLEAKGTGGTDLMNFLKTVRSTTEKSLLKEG

[14] = Metabolic stability in cynomolgus monkey hepatocytes assessed as CYP450-mediated compound metabolism by measuring half life; assay type: ADME, cell-based, Macaca fascicularis, Hepatocyte
[15] = Half life in cynomolgus monkey at 1 mg/kg, iv; assay type: ADME, organism-based, Macaca fascicularis; conditions: in vivo
[16] = Half life in dog at 1 mg/kg, iv; assay type: ADME, organism-based, Canis lupus familiaris; conditions: in vivo
[17] = Volume of distribution at steady state in rat at 0.5 mg/kg, iv; assay type: ADME, organism-based; conditions: in vivo
[18] = AUC in dog at 1 mg/kg, iv; assay type: ADME, organism-based, Canis lupus familiaris; set-up: dose 1 mg/kg; conditions: in vivo
Cytochrome P450 = Cytochrome P450 (Homo sapiens, UniProt P04798+P05177+P05181+P08684+P10632+P10635+P11509+P11712+P13584+P20813+P20815+P20853+P24462+P24903+P33260+P33261+P51589+P78329+P98187+Q02928+Q08477+Q16678+Q16696+Q5TCH4+Q6VVX0+Q7Z449+Q8TAV3+Q96SQ9+Q9HB55); experiment: Metabolic stability in human hepatocytes assessed as CYP450-mediated compound metabolism by measuring half life; assay type: ADME, cell-based, Hepatocyte
[19] = Metabolic stability in dog hepatocytes assessed as UGT-mediated compound glucuronidation by measuring half life; assay type: ADME, cell-based, Canis lupus familiaris, Hepatocyte
[20] = AUC (0 to 24 hrs) in nu/nu mouse xenografted with human SK-OV-3 cells measured in tumor at 30 mg/kg, po qd by uHPLC-MS/MS analysis; assay type: ADME, organism-based; set-up: time < 24 hr, route oral, dose 30 mg/kg
[21] = biological target: Indoleamine 2,3-dioxygenase 1 (Mus musculus) (UniProt P28776); experiment: In vivo inhibition of IDO1 in nu/nu mouse xenografted with human SK-OV-3 cells assessed as reduction in kynurenine level at 3 mg/kg, po qd by HPLC-MS/MS analysis relative to control; assay type: functional, organism-based
[22] = Volume of distribution at steady state in mouse at 0.5 mg/kg, iv; assay type: ADME, organism-based; conditions: in vivo
[23] = biological target: T2, Indoleamine 2,3-dioxygenase 1; experiment: Inhibition of IDO1 in IFNgamma-stimulated human HeLa cells preincubated for 2 hrs followed by IFNgamma stimulation and measured after 18 hrs by
[24] = AUC in rat at 6 mg/kg, po; assay type: ADME, organism-based; set-up: dose 6 mg/kg; conditions: in vivo
[25] = biological target: Neuronal acetylcholine receptor subunit alpha-7 (Homo sapiens, UniProt P36544); experiment: Inhibition of alpha7 nAChR (unknown origin)
Chain of Neuronal acetylcholine receptor subunit alpha-7 (P36544 whole entry): as the sequence (P36544 whole entry) above

C[C@@H](NC(=O)c1ccc(Cl)cc1)[C@H]1CC[C@@H](c2ccnc3ccc(F)cc32)CC1
half-life [1]: 120 min
bioavailability [2]: 39%
half-life [3]: 10 min
inhibition [4]: 58%
AUC at 24 h [5]: 9.6 µM·h
AUC at 24 h [6]: 21.1 µM·h
IC50 (Cytochrome P450 2C8): 1390 nM
t1/2 [7]: 4 min
half-life [8]: 4 min
Emax (alpha7 nAChR): 20%
IC50 (Cytochrome P450 2C19): 3.37 µM
IC50 [9]: 2 nM
IC50 (Cytochrome P450 2C9): 740 nM
half-life [10]: > 120 min
remaining at 10 min, 0.5 µM (in vitro): 54%
IC50 (CYP450): > 15 µM
AUC [11]: 5.6 µM·h
half-life [12]: 10 min
IC50 [13]: 25 nM
half-life [14]: 2 min
t1/2 [15]: 2 min
t1/2 [16]: 19 min
Vdss [17]: 0.97 L/kg
AUC [18]: 8.7 µM·h
half-life (Cytochrome P450): 14 min
half-life [19]: 33 min
AUC at 24 h [20]: 61 µM·h
inhibition [21]: 45%
Vdss [22]: 17 L/kg
IC50 [23]: 2 nM
AUC [24]: 28.2 µM·h
IC50 [25]: > 6 µM
